Assay results: patent US20240197869A1, “HYPERACTIVATORS OF MAMMALIAN DENDRITIC CELLS” (Corner Therapeutics, Inc., priority 2021, published 2024)

Key:
[1] = test system: human monocyte-derived dendritic cells (moDCs); assay: DAMP screen: IL-1β secretion by LPS-activated human moDCs (ELISA); format: cell-based; details: 41.3 μM lipid + LPS 1 μg/mL, 2 days; Table 1-2
Description: Danger-Associated Molecular Pattern (DAMP) Screen.
Quantification of IL-1beta Secretion. IL-1beta secretion was assessed using the ELISA MAX Deluxe Set Human IL-1beta kit (Biolegend). ELISAs were performed according to manufacturer's instructions with the following modifications: i) total sample volume for incubation was reduced from […] the top standard was prepared at […], with two-fold dilutions to […]; and iii) sample incubation was completed overnight at 4 C on an orbital shaker. […] To determine IL-1beta concentration in supernatants, sample IL-1beta concentrations were interpolated using a standard curve via 4PL analysis on GraphPad Prism 9 (GraphPad Software). The interpolated results of samples were then adjusted for any dilutions made to the supernatant.

[2] = test system: human monocyte-derived dendritic cells (moDCs); assay: DAMP screen: viability of human moDCs (CellTiter-Glo); details: 2 days, relative to LPS-treated moDCs
Description: Danger-Associated Molecular Pattern (DAMP) Screen. After 6 days of differentiation into moDC, cells were collected and counted. Cells were plated at 100,000 cells/well in R10 media in 96-well flat bottom tissue culture-treated plates. LPS, serotype O55:B5 (Enzo Life Sciences) was added to a final concentration of 1 μg/mL in each well. […] Cells were incubated at 37° C., 5% CO2 for two days. Cell cultures were then used for endpoint analyses.
Endpoint Analyses. After culturing moDCs with PAMPs and DAMPs for two days, supernatant and cell samples were collected for analysis.
Quantification of Cell Viability. Cell viability was assessed by quantifying the presence of ATP as an indicator of metabolically active cells using the CellTiter-Glo Luminescent Cell Viability Assay (Promega). Metabolic activity was assessed following manufacturer's instructions. The CellTiter-Glo reagent was mixed with the cell pellets and remaining supernatant, and transferred to a white, opaque 96-well plate. Luminescence was measured on all wavelengths on a Spectramax iD3 plate reader (Molecular Devices) using an integration time of 500 ms. Percent viability was calculated relative to the control condition of moDCs treated with LPS.

[3] = 41.3 μM lipid + LPS 1 μg/mL, Table 1-2
[4] = 82.5 μM lipid + LPS 1 μg/mL, Table 1-1

CCCCCCCCCCCCCCCCCC(=O)O[C@H](COC(=O)CCCCCCCCCCCCC)COP(=O)([O-])OCC[N+](C)(C)C [14:0-18:0 PC]
IL-1β secretion [1]: 24.0 pg/mL
Relative Viability (%) ± SD [2, 3]: 100.0%
Relative Viability (%) ± SD [2, 4]: 90.5%

CCCCCCCCCCCCCCCCCCCC(=O)OC[C@@H](O)COP(=O)([O-])OCC[N+](C)(C)C [20:0 LYSO PC, 1-arachidoyl-2-hydroxy-sn-glycero-3-phosphocholine]
IL-1β secretion [1]: 168.7 pg/mL
Relative Viability (%) ± SD [2, 3]: 75.2%
Relative Viability (%) ± SD [2, 4]: 6.0%

CCCCCC(=O)OC[C@@H](O)COP(=O)([O-])OCC[N+](C)(C)C [06:0 LYSO PC]
IL-1β secretion [1]: 48.2 pg/mL
Relative Viability (%) ± SD [2, 3]: 96.1%
Relative Viability (%) ± SD [2, 4]: 92.8%

CCCCCCCC/C=C\CCCCCCCC(=O)O[C@H](CO)COP(=O)([O-])OCC[N+](C)(C)C [2-18:1 Δ9 LYSO PC, 1-hydroxy-2-oleoyl-sn-glycero-3-phosphocholine]
IL-1β secretion [1]: 45.0 pg/mL
Relative Viability (%) ± SD [2, 3]: 100.6%
Relative Viability (%) ± SD [2, 4]: 97.7%

CCCCCC/C=C\CCCCCCCCC(=O)OC[C@@H](O)COP(=O)([O-])OCC[N+](C)(C)C [17:1 Δ^10 LYSO PC, 1-(10Z-heptadecenoyl)-2-hydroxy-sn-glycero-3-phosphocholine]
IL-1β secretion [1]: 42.7 pg/mL
Relative Viability (%) ± SD [2, 3]: 97.2%
Relative Viability (%) ± SD [2, 4]: 95.3%

CCCCCCCCCCCCCCC(=O)OC[C@@H](O)COP(=O)([O-])OCC[N+](C)(C)C [15:0 LYSO PC, 1-pentadecanoyl-2-hydroxy-sn-glycero-3-phosphocholine]
IL-1β secretion [1]: 150.3 pg/mL
Relative Viability (%) ± SD [2, 3]: 90.8%
Relative Viability (%) ± SD [2, 4]: 65.4%

CCCCCCCCCCCCCCCCCC(=O)O[C@H](COC(=O)CCCCCCCCCCCCCCC)COP(=O)([O-])OCC[N+](C)(C)C [16:0-18:0 PC]
IL-1β secretion [1]: 26.3 pg/mL
Relative Viability (%) ± SD [2, 3]: 97.7%
Relative Viability (%) ± SD [2, 4]: 88.8%

CCCCCCCCCCCCCCCC(=O)OC[C@H](COP(=O)([O-])OCC[N+](C)(C)C)OC(=O)CCCCCCCCCCCCC [16:0-14:0 PC]
IL-1β secretion [1]: 42.2 pg/mL
Relative Viability (%) ± SD [2, 3]: 101.0%
Relative Viability (%) ± SD [2, 4]: 87.4%

CCCCCCCCCCCCCCCC(=O)O[C@H](CO)COP(=O)([O-])OCC[N+](C)(C)C [2-16:0 LYSO PC, 1-hydroxy-2-palmitoyl-sn-glycero-3-phosphocholine]
IL-1β secretion [1]: 93.0 pg/mL
Relative Viability (%) ± SD [2, 3]: 87.2%
Relative Viability (%) ± SD [2, 4]: 43.9%

CCCCCCCCCCCCCCCC(=O)O[C@H](COC(=O)CCCCCCCCCCCCC)COP(=O)([O-])OCC[N+](C)(C)C [14:0-16:0 PC]
IL-1β secretion [1]: 32.7 pg/mL
Relative Viability (%) ± SD [2, 3]: 97.1%
Relative Viability (%) ± SD [2, 4]: 90.8%

CCCCCCCCCCC(=O)OC[C@@H](O)COP(=O)([O-])OCC[N+](C)(C)C [11:0 LYSO PC]
IL-1β secretion [1]: 39.3 pg/mL
Relative Viability (%) ± SD [2, 3]: 94.9%
Relative Viability (%) ± SD [2, 4]: 92.8%

CCCCCCCCCCCCCCCC(=O)OC[C@H](COP(=O)([O-])OCC[N+](C)(C)C)OC(=O)CCCCCCCCCCC(CCCCCC)OC(=O)CCCCCCCCCCCCCCC (stereo partly drawn) [16:0-(12-PAHSA) PC]
IL-1β secretion [1]: 37.0 pg/mL
Relative Viability (%) ± SD [2, 3]: 98.3%
Relative Viability (%) ± SD [2, 4]: 96.9%

CCCCCCCCCCCCCCCCCC(=O)O[C@H](CO)COP(=O)([O-])OCC[N+](C)(C)C [2-18:0 LYSO PC, 2-stearoyl-sn-glycero-3-phosphocholine]
IL-1β secretion [1]: 225.0 pg/mL
Relative Viability (%) ± SD [2, 3]: 65.3%
Relative Viability (%) ± SD [2, 4]: 11.5%

CCCCCCCCC(=O)OC[C@@H](O)COP(=O)([O-])OCC[N+](C)(C)C [09:0 LYSO PC]
IL-1β secretion [1]: 31.3 pg/mL
Relative Viability (%) ± SD [2, 3]: 98.2%
Relative Viability (%) ± SD [2, 4]: 95.4%

CCCCCCCCCCCCCCCCCCCCCCCCCC(=O)OC[C@@H](O)COP(=O)([O-])OCC[N+](C)(C)C [26:0 LYSO PC]
IL-1β secretion [1]: 43.1 pg/mL
Relative Viability (%) ± SD [2, 3]: 93.3%
Relative Viability (%) ± SD [2, 4]: 94.7%
